US20250041460A1, “LANTHANIDE-BASED CONTRAST AGENTS HAVING IMPROVED STABILITY AND METHODS FOR THEIR PRODUCTION AND PURIFICATION” (Inventure, LLC, priority 2023, published 2025)

Assay: Metastables test: challenge with cation exchange resin (Purolite C150), UV 274 nm peak
Assay type: physicochemical
Source text: FIGS. 3 and 4 show the relative and absolute stability of Applicant's disclosed TSA′ Gd Product as compared to two commercially available and frequently used MRI contrast agents Dotarem® and Clariscan®. The data shown in FIGS. 3 and 4 were obtained as follows. Exposing the product to a cation retaining resin, any free gadolinium ions in the sample are retained on the resin. Since the free gadolinium ions are continually removed, the equilibrium that would normally slow the decomposition of gadolinium DOTA metastable compounds is shifted toward decomposition. […] Gadolinium DOTA complex treated with xylenol orange has a characteristic peak at 274 nm in the ultraviolet spectrum. The amount of metastable gadolinium DOTA complex in the mixture can be inferred by measuring the decrease in this peak height with an ultraviolet spectrometer.
The test procedure used to obtain the foregoing results was as follows: • 1. Expose the resin to water for 24 hours. • 2. Measure the 274 nm peak height of the sample just prior to exposure to resin. This is the initial time point. • 3. Combine one equivalent of resin with one equivalent of the sample and agitate. • 4. […]
A metastable test is used to quantify ideal twisted square antiprismatic (TSA′) locked structures (TSA′ specification is greater than 99.5%). […]
The UV spectra for the time points were acquired over a range of 250-350 nm. The absorbance for the peak at 274 nm was corrected for changes in baseline by linearly interpolating the baseline from before and after the group of peaks around 274 nm (i.e., approximately from 270 to 280 nm) and subtracting the interpolated baseline value at 274 nm from the absorbance of the 274 nm peak maximum.
For the analysis of a time course experiment, it is useful to plot the corrected absorbances of the 274 nm peak as a percentage of the corrected absorbances of the 274 nm peak at the first time point versus time. […]

[1] = after resin purification process of Example 7

CNC[C@H](O)[C@@H](O)[C@H](O)[C@H](O)CO.O=C([O-])CN1CCN(CC(=O)[O-])CCN(CC(=O)O)CCN(CC(=O)[O-])CC1.[Gd+3] [TSA′ Gd Product, gadoterate meglumine]
ideal TSA' cages [1]: 99.98% | non ideal (defective) cages [1]: 200 PPM | stability compared to Dotarem and Clariscan (FIGS. 3-5) (cation retaining resin, 274 nm peak height, up to 120 minutes): more stable
